The source of these data is patent EP4556003A1, “ANTI-OBESITY AND ANTI-DIABETIC ACTIVITY OF BROMINATED DITERPENES FROM RED ALGAE OF THE GENUS LAURENCIA AND APPLICATIONS THEREOF” (priority 2023, dated 2025).

The test system of data set [1] is 3T3-L1 cells. Put plainly: MTT cell viability / proliferation assay. In kind it is cell-based, Mouse. On the procedure:
The cell viability was evaluated using the MTT assay. 3T3-L1 cells were seeded at a density of 1×10^3 in 96-well plates and incubated for 24h. Compounds 1 and 2 were added in the wells at various concentrations and then incubated at 37 °C. Cells were treated with compound 1 at concentrations of 62.5, 46.875, 31.25, 15.625, 7.81 and 3.9 µM. Cells were treated with compound 2 at concentrations of 62.5, 25.0, 12.5, 6.25 and 3.125 µM. After 24, 48, and 72 h of treatment, MTT solution was added in the wells at a final concentration of 0.5 mg/mL and incubated for 4 h. Cell culture media with MTT was removed and the formazan crystals were dissolved in 100 µl/well isopropanol/HCl (0.4%) and the absorbance was measured at 600 nm using the Infinite® 200 PRO microplate plate reader (Tecan, Zurich, Switzerland).

For another data set, the system named is 3T3-L1 adipocytes. As to the kind of experiment: Oil red o staining of intracellular lipid accumulation. In kind it is cell-based, Mouse. Conditions: differentiation induced in the presence of compound, after 12 days; 1 at 62.5 µM, 2 at 25 µM. Here is the method:
Mouse 3T3-L1 preadipocytes were maintained in proliferation medium containing DMEM supplemented with 10% (v/v) heat inactivated NBCS and 1% (v/v) penicillin-streptomycin at 37 °C with 5% CO2, humidified atmosphere. Cells were seeded in T-75 flasks at a density of 25×10^4 cells/flask. Cultures never became completely confluent according to the manufacturer's instructions. They were passaged using trypsin-EDTA solution once they reached 70-80% confluency. For differentiation, 3T3-L1 cells were seeded and after 24 h (day 1), cell differentiation was induced by changing the medium to high glucose DMEM containing 10% (v/v) heat inactivated FBS, 1% penicillin-streptomycin, 10 µg/mL insulin, 0.25 µM Dexamethasone (GAP), 0.5 mM IBMX (=differentiation medium I). On day 3, the medium was changed to high glucose DMEM containing 10% FBS, 1% penicillin- streptomycin, and 10 µg/mL insulin (=differentiation medium II). Thereafter, medium was changed every other day switching between differentiation medium I and differentiation medium II until day 12 or 23, when adipocytes were harvested. Control group preadipocytes were seeded at a higher density and harvested after two days. Test compounds were administered either at the initiation of differentiation, or after 15 days of differentiation and with every medium change. To determine the effect on preadipocyte differentiation, cells were seeded and after 24 h they were treated with neorogioldiol. Neorogioldiol was maintained in the culture medium throughout cell differentiation period. To determine the effect of neorogioldiol on mature adipocytes, cells were seeded and induced to differentiate for 14 days, then on day 15 neorogioldiol was added to the differentiation medium for 24 h before cells were harvested. Each compound used was diluted in a 90% carbowax™ 400, 10% (v/v) absolute ethanol solution serving as a control solvent. The final concentration in culture was 0.09% (v/v) carbowax and 0.01% (v/v) ethanol. […]
Oil red o staining was applied to measure lipid accumulation intracellularly. Briefly, after 12 or 23 days of differentiation, the cell culture medium was removed and the 3T3-L1 adipocytes were fixed in 3.7% formaldehyde for 60 min at room temperature. Next, a solution of 0.21% oil red o was filtered using a 0.45 µm filter followed by incubation of the fixed cells for 45 min at room temperature. Excess dye was removed and cells were washed twice with PBS. Fresh PBS was added and the lipid droplets within the differentiated 3T3-L1 cells were visualized and photographed by microscopy. For quantitative analysis, oil red o staining was eluted with 100% isopropanol and the absorbance was measured at 510 nm using the Infinite® 200 PRO microplate plate reader (Tecan, Zurich, Switzerland).

Data set [2] has as its system 3T3-L1 cells. As to the kind of experiment: Quantitative PCR of relative mRNA expression in cell culture samples. In kind it is cell-based, Mouse. The conditions noted are these: cells differentiated in the presence of compound, 12 days; 1 at 62.5 µM, 2 at 25 µM. Here is the method:
Mouse 3T3-L1 preadipocytes were maintained in proliferation medium containing DMEM supplemented with 10% (v/v) heat inactivated NBCS and 1% (v/v) penicillin-streptomycin at 37 °C with 5% CO2, humidified atmosphere. Cells were seeded in T-75 flasks at a density of 25×10^4 cells/flask. Cultures never became completely confluent according to the manufacturer's instructions. They were passaged using trypsin-EDTA solution once they reached 70-80% confluency. For differentiation, 3T3-L1 cells were seeded and after 24 h (day 1), cell differentiation was induced by changing the medium to high glucose DMEM containing 10% (v/v) heat inactivated FBS, 1% penicillin-streptomycin, 10 µg/mL insulin, 0.25 µM Dexamethasone (GAP), 0.5 mM IBMX (=differentiation medium I). On day 3, the medium was changed to high glucose DMEM containing 10% FBS, 1% penicillin- streptomycin, and 10 µg/mL insulin (=differentiation medium II). Thereafter, medium was changed every other day switching between differentiation medium I and differentiation medium II until day 12 or 23, when adipocytes were harvested. Control group preadipocytes were seeded at a higher density and harvested after two days. Test compounds were administered either at the initiation of differentiation, or after 15 days of differentiation and with every medium change. To determine the effect on preadipocyte differentiation, cells were seeded and after 24 h they were treated with neorogioldiol. Neorogioldiol was maintained in the culture medium throughout cell differentiation period. To determine the effect of neorogioldiol on mature adipocytes, cells were seeded and induced to differentiate for 14 days, then on day 15 neorogioldiol was added to the differentiation medium for 24 h before cells were harvested. Each compound used was diluted in a 90% carbowax™ 400, 10% (v/v) absolute ethanol solution serving as a control solvent. The final concentration in culture was 0.09% (v/v) carbowax and 0.01% (v/v) ethanol. Compounds were used at the following concentrations: neorogioldiol (1) 62.5µM and neorogioltriol (2) 25µM.
Adipocytes and preadipocytes were harvested using the TRI Reagent®. RNA isolation was carried out according to the manufacturer's instructions. The purified RNA was quantified using the Nanodrop micro-volume spectrophotometer and 500 ng of each sample were used as a template for reverse transcription. cDNA synthesis was performed using the PrimeScriptTM RT reagent Kit (TaKaRa, RR037A) according to manufacturer's instructions. The cDNA produced by the above described procedure was diluted and used as a template for two-step quantitative PCR in a StepOnePlus™ Real-Time PCR System (Applied Biosystems™, 4376600) for a maximum of 40 cycles, as follows: start step 95 °C for 3 min, repeat steps: 95 °C for 15 s and 60 °C for 30 s. Amplification was performed using KAPA SYBR® FAST Universal qPCR kit (Kapa Biosystems, KK4618) according to manufacturer's instructions. Relative quantitative analysis was accomplished calculating fold-changes of gene expression as 2-(ΔΔCt), where ΔCt is (Ct (gene of interest) - Ct (housekeeping gene)). Ppib was used as internal control gene in 3T3L1 cells and in the fat fraction of mice abdominal fat, Rps9 was used as internal control gene in the stromal vascular fraction of mice abdominal fat and Actb was used as internal control gene in liver samples. Table 1. List of primers used for quantitative real-time PCR analysis.

The conditions of data set [3]: references [10, 11]; cited from earlier work.
In another data set the test system is NFKB1. The conditions noted are these: in vitro model, reference [11]; cited from earlier work.
In a further data set the test system is COX2. The conditions noted are these: in vitro model, reference [11]; cited from earlier work.
The conditions of data set [4]: reference [12]; cited from earlier work.

Take `C=C([C@H]1CC[C@@](C)(O)[C@@H](Br)C1)[C@H]1[C@H](O)[C@@H]2[C@@H](CC[C@@]2(C)O)C1(C)C` [neorogioltriol]: in the data set with 3T3-L1 cells [1] (concentration chosen for further analyses), the “concentrations that did not exhibit cytotoxicity” value stood at 25 µM. Also, in the data set on 3T3-L1 cells [1] (three-day incubation (24, 48, 72 h), compound 1: after the first 24 h of treatment), the “concentration with cytostatic effects” value was “above 25 µM”. Further, in the data set on 3T3-L1 adipocytes, the lipid accumulation entry was “increased lipid accumulation”. Moreover, in the data set with 3T3-L1 cells [2], the Adipoq expression levels result is “restricted the increase”, the “Dlkl mRNA expression” value is given as “did not change”, the Lep expression levels entry is listed as “restricted the increase” and the Slc2a4 expression levels result was “restricted the increase”. For the same compound, in data set [3], the “analgesic properties in vivo” value is given as “potent” and the “anti-inflammatory properties in vivo” value is reported as “potent”. Besides, the NFKB1 levels result in the data set with NFKB1 is listed as “reducing”. Further, in the data set with COX2, the COX2 levels result is recorded as “reducing”.
For “O^11,15-cyclo-14-bromo-14,15-dihydrorogiol-3,11-diol”, the anti-inflammatory activity entry in data set [4] is given as “potent anti-inflammatory activity”.
